Paper PMC9518264, “Design and synthesis of novel quinazolinone-based derivatives as EGFR inhibitors with antitumor activity” (Journal of Enzyme Inhibition and Medicinal Chemistry, 2022)

Columns and labels:
Test in all cases: cells
Format in all cases: cell-based
[1] = test system: NCI-H460
[2] = test system: NCI/ADR-RES
[3] = test system: OVCAR-8
[4] = test system: A498
[5] = test system: BT-549
[6] = test system: OVCAR-5
[7] = test system: IGROV1
[8] = test system: A549/ATCC
[9] = test system: SF-295
[10] = test system: K-562
[11] = test system: SK-MEL-5
[12] = test system: UACC-62
[13] = test system: EKVX
[14] = test system: MDA-MB-435
[15] = test system: KM12
[16] = test system: 786-0
[17] = test system: UO-31
[18] = test system: SK-MEL-2
[19] = test system: T-47D
[20] = test system: SR
[21] = test system: SF-268
[22] = test system: HOP-62
[23] = test system: HS 578T
[24] = test system: MCF7; conditions: Homo sapiens
[25] = Homo sapiens, 5 doses, read-out: LC50 (the source's name)
[26] = Homo sapiens, read-out: growth inhibition % (GI%)

With O=C(CSc1nc2ccccc2c(=O)n1-c1ccc(Cl)cc1)NN=Cc1ccc(Oc2ccc(Cl)cc2)cc1 [6d, N'-(4–(4-chlorophenoxy)benzylidene)-2-((3–(4-chlorophenyl)-4-oxo-3,4-dihydroquinazolin-2-yl)thio)acetohydrazide] the GI50 ([1]; Homo sapiens, NCI-H460) was 0.789 µM, the inhibition at 10 µM ([1]; Homo sapiens, NCI-H460, read-out: growth inhibition % (GI%)) was greater than 100% and the LC50 (concentration killing 50% of cells) ([1]; Homo sapiens, NCI-H460, 5 doses) was 7.78 µM. It also gave a TGI ([1]; NCI-H460, 5 doses) of 2.6 µM, a TGI ([2]; 5 doses) of 3.56 µM and a GI50 ([2]; Homo sapiens) of 1.64 µM. It also gave a CC50 [2, 25] of 7.76 µM, an inhibition at 10 µM [2, 26] of 84.3% and a GI50 ([3]; Homo sapiens, OVCAR-8) of 2.41 µM. For the same compound, the inhibition at 10 µM ([3]; Homo sapiens, OVCAR-8, read-out: growth inhibition % (GI%)) was 86.6%, the CC50 ([3]; Homo sapiens, OVCAR-8, 5 doses, read-out: LC50 (the source's name)) was greater than 100 µM and the TGI ([3]; OVCAR-8, 5 doses) was 6.56 µM. For the same compound, the TGI ([4]; A498, 5 doses) was 4.34 µM, the GI50 ([4]; Homo sapiens, A498) was 1.94 µM and the inhibition at 10 µM ([4]; Homo sapiens, A498, read-out: growth inhibition % (GI%)) was greater than 100%. It also gave a CC50 ([4]; Homo sapiens, A498, 5 doses, read-out: LC50 (the source's name)) of 9.74 µM, a TGI ([5]; BT-549, 5 doses) of 12.2 µM and a GI50 ([5]; Homo sapiens, BT-549) of 3.28 µM. For the same compound, the inhibition at 10 µM ([5]; Homo sapiens, BT-549, read-out: growth inhibition % (GI%)) was greater than 100%, the CC50 ([5]; Homo sapiens, BT-549, 5 doses, read-out: LC50 (the source's name)) was 36.2 µM and the GI50 ([6]; Homo sapiens, OVCAR-5) was 2.27 µM. The inhibition at 10 µM ([6]; Homo sapiens, OVCAR-5, read-out: growth inhibition % (GI%)) was 29.4%, the CC50 ([6]; Homo sapiens, OVCAR-5, 5 doses, read-out: LC50 (the source's name)) was 32.2 µM and the TGI ([6]; OVCAR-5, 5 doses) was 6.44 µM. The GI50 ([7]; Homo sapiens, IGROV-1) was 1.51 µM, the inhibition at 10 µM ([7]; Homo sapiens, IGROV-1, read-out: growth inhibition % (GI%)) was 79.4% and the CC50 ([7]; Homo sapiens, IGROV-1, IGROV1, 5 doses, read-out: LC50 (the source's name)) was 7.12 µM. For the same compound, the TGI ([7]; IGROV1, 5 doses) was 3.28 µM, the TGI ([8]; A549/ATCC, 5 doses) was 14.0 µM and the GI50 ([8]; Homo sapiens, A549) was 3.25 µM. For the same compound, the inhibition at 10 µM ([8]; Homo sapiens, A549, read-out: growth inhibition % (GI%)) was 83.5%, the LC50 (lethal concentration, 50% cell kill) ([8]; Homo sapiens, A549/ATCC, 5 doses) was 83.3 µM and the GI50 ([9]; Homo sapiens, SF-295) was 3.61 µM. For the same compound, the inhibition at 10 µM ([9]; Homo sapiens, SF-295, read-out: growth inhibition % (GI%)) was 35.3%, the CC50 ([9]; Homo sapiens, SF-295, 5 doses, read-out: LC50 (the source's name)) was 36.4 µM and the TGI ([9]; SF-295, 5 doses) was 13.3 µM. The GI50 ([10]; Homo sapiens, K562) was 4.15 µM, the inhibition at 10 µM ([10]; Homo sapiens, K562, read-out: growth inhibition % (GI%)) was 77% and the CC50 ([10]; Homo sapiens, K562, K-562, 5 doses, read-out: LC50 (the source's name)) was greater than 100 µM. The TGI ([10]; K-562, 5 doses) was 20.2 µM, the GI50 ([11]; Homo sapiens, SK-MEL-5) was 1.75 µM and the inhibition at 10 µM ([11]; Homo sapiens, SK-MEL-5, read-out: growth inhibition % (GI%)) was 89.1%. For the same compound, the CC50 ([11]; Homo sapiens, SK-MEL-5, 5 doses, read-out: LC50 (the source's name)) was 7.07 µM, the TGI ([11]; SK-MEL-5, 5 doses) was 3.51 µM and the GI50 ([12]; Homo sapiens, UACC-62) was 1.59 µM. It also gave an inhibition at 10 µM ([12]; Homo sapiens, UACC-62, read-out: growth inhibition % (GI%)) of 99.6%, a CC50 ([12]; Homo sapiens, UACC-62, 5 doses, read-out: LC50 (the source's name)) of 6.38 µM and a TGI ([12]; UACC-62, 5 doses) of 3.18 µM. The TGI ([13]; 5 doses) was 13.9 µM, the GI50 ([13]; Homo sapiens) was 3.1 µM and the LC50 ([13]; Homo sapiens, 5 doses) was 63.6 µM. It also gave an inhibition at 10 µM [13, 26] of 59.2%, a GI50 ([14]; Homo sapiens, MDA-MB-435) of 1.93 µM and an inhibition at 10 µM ([14]; Homo sapiens, MDA-MB-435, read-out: growth inhibition % (GI%)) of 75%. It also gave a CC50 ([14]; Homo sapiens, MDA-MB-435, 5 doses, read-out: LC50 (the source's name)) of 13 µM, a TGI ([14]; MDA-MB-435, 5 doses) of 4.56 µM and a GI50 ([15]; Homo sapiens, KM12) of 2.04 µM. For the same compound, the inhibition at 10 µM ([15]; Homo sapiens, KM12, read-out: growth inhibition % (GI%)) was 82.6%, the CC50 ([15]; Homo sapiens, KM12, 5 doses, read-out: LC50 (the source's name)) was 26.6 µM and the TGI ([15]; KM12, 5 doses) was 5.0 µM. The TGI ([16]; 786-0, 5 doses) was 6.41 µM, the GI50 ([16]; Homo sapiens, 786-0) was 2.51 µM and the inhibition at 10 µM ([16]; Homo sapiens, 786-0, read-out: growth inhibition % (GI%)) was greater than 100%. It also gave a CC50 ([16]; Homo sapiens, 786-0, 5 doses, read-out: LC50 (the source's name)) of 26.5 µM, a GI50 ([17]; Homo sapiens, UO-31) of 7.47 µM and an inhibition at 10 µM ([17]; Homo sapiens, UO-31, read-out: growth inhibition % (GI%)) of less than 15%. For the same compound, the CC50 ([17]; Homo sapiens, UO-31, 5 doses, read-out: LC50 (the source's name)) was 47.1 µM, the TGI ([17]; UO-31, 5 doses) was 21.1 µM and the GI50 ([18]; Homo sapiens) was 2.86 µM. For the same compound, the inhibition at 10 µM ([18]; Homo sapiens, SK-MEL-2, read-out: growth inhibition % (GI%)) was 45.7%, the CC50 ([18]; Homo sapiens, SK-MEL-2, 5 doses, read-out: LC50 (the source's name)) was 41.3 µM and the TGI ([18]; SK-MEL-2, 5 doses) was 8.93 µM. It also gave a GI50 ([19]; Homo sapiens, T47D) of 2.09 µM, an inhibition at 10 µM ([19]; Homo sapiens, T47D, read-out: growth inhibition % (GI%)) of 69.9% and a CC50 ([19]; Homo sapiens, T47D, T-47D, 5 doses, read-out: LC50 (the source's name)) of 49.5 µM. It also gave a TGI ([19]; T-47D, 5 doses) of 5.76 µM, a TGI ([20]; 5 doses) of 6.86 µM and a GI50 ([20]; Homo sapiens) of 1.84 µM. It also gave a CC50 [20, 25] of 31.9 µM, an inhibition at 10 µM [20, 26] of 67.1% and a GI50 ([21]; Homo sapiens, SF-268) of 3.85 µM. It also gave an inhibition at 10 µM ([21]; Homo sapiens, SF-268, read-out: growth inhibition % (GI%)) of 44.2%, an LC50 ([21]; Homo sapiens, SF-268, 5 doses) greater than 100 µM and a TGI ([21]; SF-268, 5 doses) of 23.9 µM. It also gave a TGI ([22]; HOP-62, 5 doses) of 4.05 µM, a GI50 ([22]; Homo sapiens, HOP-62) of 1.69 µM and an inhibition at 10 µM ([22]; Homo sapiens, HOP-62, read-out: growth inhibition % (GI%)) of 67.4%. For the same compound, the CC50 ([22]; Homo sapiens, HOP-62, 5 doses, read-out: LC50 (the source's name)) was 9.69 µM, the TGI ([23]; HS 578T, 5 doses) was 6.36 µM and the GI50 ([23]; Homo sapiens, Hs-578T) was 2.17 µM. It also gave an inhibition at 10 µM ([23]; Homo sapiens, Hs-578T, read-out: growth inhibition % (GI%)) of 78.6%, a CC50 ([23]; Homo sapiens, HS 578T, 5 doses, read-out: LC50 (the source's name)) greater than 100 µM and a GI50 ([24]; MCF7) of 2.01 µM. For the same compound, the inhibition at 10 µM ([24]; MCF7, read-out: growth inhibition % (GI%)) was 84.5%.
